Experimental data as given in publication PMC7407272, “Induction of Lysosome Membrane Permeabilization as a Therapeutic Strategy to Target Pancreatic Cancer Stem Cells” (Cancers, 2020).
Where two headings read alike, the source gives them in different places.

How the values were obtained:
[1] = system: sphere-derived PDAC2 cells; assay: Tumor initiating capacity of pre-treated cells injected subcutaneously; format: in vivo, NU-Foxn1nu nude mice; details: cells treated 3 days with 0.1 µg/mL GEM or compound at 1.25 µM, then injected subcutaneously
Protocol: Female 6- to 8-week-old NU-Foxn1nu nude mice (Envigo, Spain) were subcutaneously injected with control or pre-treated 1 × 10^4 PDAC cells in 50 µL of Matrigel^TM (Corning). Tumor growth was monitored bi-weekly for up to 10 weeks. For Siramesine experiments, mice were subcutaneously implanted with PDAC1 and PDAC3 PDXs. After 4 weeks of tumor growth, mice were randomized into treatment groups (5 mice per group). Mice were treated with Siramesine twice a week (30 mg/kg by oral gavage formulated in 0.5% methylcellulose 15 cP in 0.9% NaCl solution) for ~4 weeks. Gemcitabine (GEMZAR®, Eli Lilly, Indianapolis, IN, USA) was administered twice a week (125 mg/kg i.p.) for ~4 weeks. Tumor volumes (mm^3) were determined twice per week using a digital caliper. Mice were sacrificed at 24 days post treatment initiation and tumors were extracted and analyzed by flow cytometry as described above. For second generation tumor formation, 1000 and 100 cells of indicated treatment groups were resuspended in Matrigel ^TM and injected subcutaneously in recipient NU-Foxn1nu nude mice and tumor formation was monitored for 10 weeks. Mice were housed according to institutional guidelines and all experiments were performed in compliance with the institutional guidelines for the welfare of experimental animals approved by the Universidad Autónoma de Madrid Ethics Committee (CEI 60-1057-A068) or by the Instituto de Salud Carlos III Ethics Committee (CBA12_2014-v3) and La Comunidad de Madrid (PROEX 335/14 or PROEX 53/14) and in accordance with the guidelines for Ethical Conduct in the Care and Use of Animals as stated in The International Guiding Principles for Biomedical Research involving Animals, developed by the Council for International Organizations of Medical Sciences (CIOMS).

PDAC2 3D spheres = assay: Viability curves on PDAC2 3D spheres; format: cell-based, human; details: for EC50: Homo sapiens
From the text: The PDAC patient-derived xenograft (PDX) Panc354 (referred to hereafter as PDAC3) was obtained from Dr. Manuel Hidalgo under a Material Transfer Agreement with the Spanish National Cancer Centre (CNIO), Madrid, Spain (Reference no. I409181220BSMH). PDAC1, PDAC2 and PDAC4 PDXs were established from primary patient resected tumors. Samples were provided by the BioBank Hospital Ramón y Cajal-IRYCIS (PT13/0010/0002), integrated in the Spanish National Biobanks Network and they were processed following standard operating procedures with the appropriate approval of the Ethical and Scientific Committees (Control no. No. Control: DE-BIOB-73 AC65, RG.BIOB-96 REV, and CI-BIOB-08-10-01 rev), with informed consent and according to Declaration of Helsinki principles. Primary patient tumors were subcutaneously implanted in immunocompromised female 6- to 8-week-old NU-Foxn1nu nude mice (Envigo, Barcelona, Spain) and subsequently passage in vivo to establish PDX PDAC1, PDAC2 and PDAC4. Primary PDX-derived in vitro cultures were established as previously detailed. Briefly, xenografts were minced, enzymatically digested with collagenase (Stem Cell Technologies) for 60 min at 37 °C and after centrifugation for 5 min at 1800 rpm, the cell pellets were resuspended and cultured in RPMI (1:1; #61870-010; Gibco, Waltham, MA, USA) supplemented with 10% FBS (Invitrogen, Waltham, MA, USA), Pen/Strep (1:100; #1500-063; Gibco, Waltham, MA, USA), and Fungizone (1:250; #15290-018; Gibco, Waltham, MA, USA). Primary cultures were tested for Mycoplasma at least every 4 weeks.
Pancreatic CSC spheres were generated as previously described in ultra-low attachment plates (Corning) using CSC media: serum-free DMEM/F12 medium (1:1; #21331-020; Gibco, Waltham, MA, USA), supplemented with Pen/Strep (1:100; #1500-063; Gibco, Waltham, MA, USA), Fungizone (1:250; #15290-018; Gibco), L-Glutamine (1:100; #25030-024; Gibco, Waltham, MA, USA), B-27 (1:50; #17504-044; Gibco, Waltham, MA, USA) and basic fibroblast growth factor (FGF-b) (1:5000; Gibco, Waltham, MA, USA). All cell culture was carried out at 37 °C in a 5% CO2 humidified incubator. To quantify spheres of > 40 μm, 1 mL of sample volume was analyzed with a CASY® Cell Counter (Roche Applied Sciences, Mannheim, Germany). The CASY® Cell Counter measuring principle is based on a capillary particle counter with pulse area analysis, that permits the determination of cell count, cell concentration, cell volume (peak), and average cell diameter, specifically diameters of 40–80 μm, 80–120 μm and >120 μm.
Murine embryonic stem cells (mESCs) were plated at 20,000 cells per well in gelatinized 96 well plates. Compounds from the 640 compound ETP library were added by a Beckman FX 96 tip to achieve a final concentration of 5 µM in each well, and each compound was tested in duplicate. Cells were treated for a total of 30 h prior to assessing cell viability using CellTiter 96® AQueous One Solution Cell Proliferation Assay (MTS) assay according to manufacturer’s instructions (G3582, Promega, Madison, WI, USA). Dose response curves were carried out on mESCs under the same conditions using indicated compounds. To test the viability of CSCs, 10,000 PDAC cells were plated in spheroid conditions and immediately treated with indicated compounds and concentrations for the duration of the sphere formation assay. […]

SMILES	tumor formation / growth from pre-treated cells [1]	prevention of the effect on PDAC2 CSC survival by Bafilomycin-A (PDAC2 3D spheres; 100 nM Bafilomycin 5 h pretreatment)	EC50 (PDAC2 3D spheres; PDAC-2, 72 h, no Bafilomycin, read-out: EC50 (viability), PDAC2 spheres) [µM]	EC50 (PDAC2 3D spheres; PDAC-2, pretreated with 100 nM Bafilomycin for 5 h, then 72 h, read-out: EC50 (viability), PDAC2 spheres, +Baf) [µM]	EC50 (PDAC2 3D spheres; PDAC-2, 30 h, read-out: EC50 (viability), PDAC2 spheres) [µM]
COc1nc2ccc(NCC3CCN(C)CC3)nn2c1C(=O)Nc1cccc(OC(F)(F)F)c1 [Cpd 1]	complete inhibition in tumor formation	–	–	–	–
CN1CCC(CNc2ccc3ncc(C(=O)Nc4cccc(OC(F)(F)F)c4)n3n2)CC1 [Cpd 2]	reduced	≈ 3 fold	3.84	9.14	–
Fc1ccc(-n2cc(CCCCN3CCC4(CC3)OCc3ccccc34)c3ccccc32)cc1 [siramesine]	–	–	–	–	5.98
